# Data reported in US6616922B2, “Antibacterial compositions” (The Dial Corporation, priority 2001, dated 2003).
# Experiments:
# [1] = tested on: E. coli; assay: Time kill test (rapid germicidal activity) against E. coli; format: cell-based, Escherichia coli; conditions: 2% active aqueous solution
# Method: (§1) a) Determination of Rapid Germicidal (Time Kill) Activity of Antibacterial Products. The activity of antibacterial compositions was measured by the time kill method, whereby the survival of challenged organisms exposed to an antibacterial test composition is determined as a function of time. In this test, a diluted aliquot of the composition is brought into contact with a known population of test bacteria for a specified time period at a specified temperature. The test composition is neutralized at the end of the time period, which arrests the antibacterial activity of the composition. The percent or, alternatively, log reduction from the original bacteria population is calculated. In general, the time kill method is known to those skilled in the art. The composition can be tested at any concentration from 0-100%. The choice of which concentration to use is at the discretion of the investigator, and suitable concentrations are readily determined by those skilled in the art. […] The test sample is placed in a sterile 250 ml beaker equipped with a magnetic stirring bar and the sample volume is brought to 100 ml, if needed, with sterile deionized water. All testing is performed in triplicate, the results are combined, and the average log reduction is reported. The choice of contact time period also is at the discretion of the investigator. Any contact time period can be chosen. […] The contact temperature also can be any temperature, typically room temperature, or about 25 degrees Celsius. The bacterial suspension, or test inoculum, is prepared by growing a bacterial culture on any appropriate solid media (e.g., agar). The bacterial population then is washed from the agar with sterile physiological saline and the population of the bacterial suspension is adjusted to about 10^8 colony forming units per ml (cfu/ml). The table below lists-the test bacterial cultures used in the following tests and includes the name of the bacteria, the ATCC (American Type Culture Collection) identification number, and the abbreviation for the name of the organism used hereafter. [table] The beaker containing the test composition is placed in a water bath (if constant temperature is desired), or placed on a magnetic stirrer (if ambient laboratory temperature is desired). The sample then is inoculated with 1.0 ml of the test bacteria suspension. The inoculum is stirred with the test composition for the predetermined contact time. […] Decimal dilutions to a countable range then are made. The dilutions can differ for different organisms. Plate selected dilutions in triplicate on TSA+ plates (TSA+ is Trypticase Soy Agar with Lecithin and Polysorbate 80). […] The control count (numbers control) is determined by conducting the procedure as described above with the exception that THT is used in place of the test composition. The plate counts are converted to cfu/ml for the numbers control and samples, respectively, by standard microbiological methods. The log reduction is calculated using the formula Log reduction=log10 (numbers control)−log10 (test sample survivors).
# [2] = tested on: S. aureus; assay: Time kill test (rapid germicidal activity) against S. aureus; format: cell-based, Staphylococcus aureus; conditions: 2% active aqueous solution
# Method: as §1
substance,measurement,setting,value
Lauramine oxide,log reduction after 30 seconds E. coli,"[1]; pH 4.93, 30 seconds",>5.32 log
same,log reduction after 30 seconds E. coli,"[1]; pH 5.50, 30 seconds",>4.70 log
same,log reduction after 30 seconds E. coli,"[1]; pH 6.02, 30 seconds",>4.70 log
same,log reduction after 30 seconds E. coli,"[1]; pH 6.5, 30 seconds",>4.70 log
same,log reduction after 30 seconds E. coli,"[1]; pH 7.0, 30 seconds",>5.32 log
same,log reduction after 30 seconds E. coli,"[1]; pH 7.53, 30 seconds",0.88 log
same,log reduction after 30 seconds E. coli,"[1]; pH 8.94, 30 seconds",0.27 log
same,log reduction after 30 seconds E. coli,"[1]; pH 10.14, 30 seconds",0.11 log
same,log reduction after 30 seconds S. aureus,"[2]; pH 4.93, 30 seconds",2.11 log
same,log reduction after 30 seconds S. aureus,"[2]; pH 5.50, 30 seconds",>4.38 log
same,log reduction after 30 seconds S. aureus,"[2]; pH 6.02, 30 seconds",>4.39 log
same,log reduction after 30 seconds S. aureus,"[2]; pH 6.5, 30 seconds",>4.39 log
same,log reduction after 30 seconds S. aureus,"[2]; pH 7.0, 30 seconds",>4.39 log
same,log reduction after 30 seconds S. aureus,"[2]; pH 7.53, 30 seconds",>4.39 log
same,log reduction after 30 seconds S. aureus,"[2]; pH 8.94, 30 seconds",4.33 log
same,log reduction after 30 seconds S. aureus,"[2]; pH 10.14, 30 seconds",3.75 log
